In the METLIN SMRT retention time set (Domingo-Almenara et al. 2019) one finds RP-LC retention time data, which are given here for 59 compounds.

The structures appear in SMILES notation.

This data set is described as follows: gradient 5% acetonitrile 3 min, to 50% in 2 min, to 85% in 15 min, held 3 min, 100 µL/min. The conditions noted are these: column: Zorbax Extend-C18 2.1 x 50 mm; eluents: water / acetonitrile, 0.1% formic acid. An outline of the steps:
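Retention times come from adduct peaks that were picked computationally and then checked by hand. The standards, pure and pooled in mixtures of ~100 molecules, were run on a Zorbax Extend-C18 column (2.1 × 50 mm, 1.8 μm) at 100 μL/min with water and acetonitrile, each with 0.1% formic acid. Detection was by quadrupole time-of-flight mass spectrometry in positive and negative ionization mode, with a dead volume of 40 μL and a dwell volume of 900 μL.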
As for `COc1ccccc1CNC(=O)c1nnc(-c2ccc(S(=O)(=O)N3CCC(C)CC3)cc2)o1`, the RP-LC retention time is 1020 s.

Regarding `Cc1nn(-c2ccccc2)c2c1C(c1ccc([N+](=O)[O-])cc1)C(C#N)=C(N)O2` (centres undefined), the RP-LC retention time was determined as 760 s.

In the case of `Cc1cccc(NC(=O)N2CC(Cc3nncn3C(C)C)C2)c1C`, the RP-LC retention time stood at 627 s.

As for `Cc1cc(-c2nnc(-c3ccco3)o2)c(C)n1CC(=O)Nc1cccc(F)c1`, the RP-LC retention time worked out at 881 s.

Compound `COC(=O)c1c(-c2ccccc2)noc1NCc1ccccc1` came in with an RP-LC retention time of 1050 s.

Regarding `CN1CCN(C(=O)c2cc(-c3cccs3)n(CC(=O)NCc3ccco3)n2)CC1`, the RP-LC retention time was found to be 572 s.

For `O=C(NCCOc1cccc(C(F)(F)F)c1)C1CCCC1`, the RP-LC retention time turned out to be 880 s.

As to `CN1CCN(S(=O)(=O)c2c[nH]c(=O)[nH]c2=O)CC1`, the RP-LC retention time was 720 s.

`COc1ccc(C)cc1NC(=O)NC1CCN(c2ccc(F)c(C)c2)C1=O` (centres undefined) displayed an RP-LC retention time of 914 s.

For the compound `COc1ccc(-c2nc(C)cc(C)c2CNS(=O)(=O)c2ccc(OC)cc2)cc1`, the RP-LC retention time turned out to be 643 s.

Compound `Cc1ccc(C)c(C(=O)N2CCc3c(c(-c4nc(C5CC5)no4)nn3C)C2)c1` returned an RP-LC retention time of 854 s.

In turn, `O=C(Cn1cccc1-c1nnc(C2CCC2)o1)Nc1cccc(Br)c1` showed an RP-LC retention time of 974 s.

For the compound `COC(=O)c1cc(-c2cccc(N)c2)nc2ccccc12`, the RP-LC retention time amounted to 749 s.

For the compound `CCOC(=O)c1c(C)[nH]c(NC(=O)Nc2ccccc2C)c1C`, the RP-LC retention time was determined as 912 s.

The compound `Cc1ccc(NC(=O)C2CCCN(c3nccc(C)n3)C2)c(Br)c1` (centres undefined) showed an RP-LC retention time of 889 s.

On to `c1ccc2c(CCNc3ccc(Nc4ccncc4)cc3)c[nH]c2c1`, for which the RP-LC retention time was 1110 s.

As to `Cc1ccc2cc(CCC(=O)NCCN3CCCCCC3)c(=O)[nH]c2c1`, the RP-LC retention time is 628 s.

`Cc1ccc2oc(-c3nnc(C(=O)NCCN4CCC(C)CC4)o3)c(C)c2c1`: the RP-LC retention time was found to be 674 s.

As for `Cc1nnc(-c2cc(NC(=O)c3ccc(F)cc3Cl)c(C)s2)o1`, the RP-LC retention time was found to be 865 s.

In turn, `O=c1c(NCCc2ccc(Cl)cc2)nc2ccncc2n1Cc1ccccc1` gave an RP-LC retention time of 766 s.

`O=C(CSc1cn(CCNC(=O)c2ccccc2)c2ccccc12)Nc1ccccc1F` came in with an RP-LC retention time of 863 s.

As to `COc1cc(C(=O)Nc2nc(-c3ccc(C)cc3)cs2)c(Br)c(OC)c1OC`, the RP-LC retention time came out at 1120 s.

Take `CC1=C2C(=O)[C@H]3[C@@H](CC=C4C[C@@H](O)CC[C@@]43C)[C@@H]2CC[C@]12O[C@@H]1C[C@H](C)CN[C@H]1C2C` (some centres undefined): the RP-LC retention time was found to be 699 s.

The compound `CCCN1CCN(C(=O)C2CCCN(S(=O)(=O)c3cc(-c4noc(CC)n4)cs3)C2)CC1` (centres undefined) displayed an RP-LC retention time of 665 s.

The compound `Cc1ccc(F)cc1S(=O)(=O)N1CCc2c(c(-c3nnc(-c4ccc(F)cc4)o3)nn2C)C1` showed an RP-LC retention time of 1000 s.

`Cc1ccn(-c2ccc(C(=O)NC(C)C)cn2)n1` gave an RP-LC retention time of 715 s.

In turn, `CS(=O)(=O)N(Cc1ccncc1)C1CN(S(=O)(=O)c2ccccc2)C1` had an RP-LC retention time of 595 s.

In turn, `CCOc1cc(CNC(=O)c2nc(N3CCOCC3)c3ccccc3n2)ccc1OC` showed an RP-LC retention time of 660 s.

For the compound `CCN(CC)CCCNC(=O)CCc1c(-c2ccc(Br)cc2)nc2ccccn12`, the RP-LC retention time turned out to be 559 s.

Consider `COc1ccc(CNC(=O)C2CCN(S(=O)(=O)c3cc(-c4noc(C)n4)cs3)CC2)cc1`, for which the RP-LC retention time is 831 s.

With `CC(C)c1nc(N(C)Cc2ccccc2)ncc1C(=O)O`, the RP-LC retention time is 1030 s.

The compound `Cc1noc(-c2ccnc(-n3cnc(C(=O)NCc4ccccc4)c3)c2)n1` displayed an RP-LC retention time of 806 s.

On to `CCOC(=O)Cc1ccc(NC(=O)NC2CCN(c3ccc(C)c(C)c3)C2=O)cc1` (centres undefined), for which the RP-LC retention time was 877 s.

Regarding `CC(C(=O)N1CCN(Cc2ccccc2)CC1)N1C(=O)CCCc2ccccc21` (centres undefined), the RP-LC retention time stood at 644 s.

`CCOc1cccc(-c2noc(Cn3ccn(-c4ccccc4OC)c(=O)c3=O)n2)c1` returned an RP-LC retention time of 863 s.

As for `O=C(CSc1ccncc1)N1CCCn2nc(-c3ccc(Cl)cc3)cc2C1`, the RP-LC retention time worked out at 661 s.

As for `COC(=O)c1ccc(NC(=O)C2CCN(c3cc(N4CCCCC4)ncn3)CC2)cc1`, the RP-LC retention time was found to be 715 s.

On to `Cc1cc(C)n(Cc2nc(-c3ccc(NC(=O)c4cccs4)cc3)oc2C)n1`, for which the RP-LC retention time came out at 896 s.

On to `Cc1ccc(C(=O)N(CC(=O)N(Cc2ccco2)CC2CCCO2)C(C)(C)C)cc1` (centres undefined), for which the RP-LC retention time was 907 s.

Consider `O=C(O)c1cn(Cc2cccc(F)c2)c(=O)c2ccccc12`, for which the RP-LC retention time came to 822 s.

Regarding `CCNC(=O)C1CCN(C(=O)Nc2ccc(NC(=O)Nc3ccccc3F)cc2)CC1`, the RP-LC retention time turned out to be 686 s.

`CC(=O)N(Cc1nn(C)c2c1CN(S(=O)(=O)c1ccc(F)cc1F)CC2)c1ccccc1` registered an RP-LC retention time of 808 s.

Take `COc1ccc(Cl)c(Cn2c(NCC3CCCO3)nc3c2c(=O)n(C)c(=O)n3C)c1` (centres undefined): the RP-LC retention time was 801 s.

Regarding `Cc1csc(C(=O)NC2CNC(=O)C2)c1` (centres undefined), the RP-LC retention time turned out to be 572 s.

Turning to `COc1ccc(-c2noc(C3CC(=O)N(c4ccc(C)cc4)C3)n2)cc1OC` (centres undefined), the RP-LC retention time was 885 s.

In turn, `Cc1nnc(CNC(=O)C(=O)Nc2ccc3c(c2)OCCO3)o1` had an RP-LC retention time of 615 s.

The compound `CCCNC(=O)CSc1cc(NCc2ccc(Cl)cc2)ncn1` registered an RP-LC retention time of 778 s.

Turning to `CCc1noc(NC(C)=O)c1-c1ccc(OC)c(S(=O)(=O)Nc2cc(Cl)ccc2OC)c1`, the RP-LC retention time was determined as 876 s.

With `O=C(CN1C(=O)CCC1=O)Nc1ncc(S(=O)(=O)c2ccc([N+](=O)[O-])cc2)s1`, the RP-LC retention time came to 706 s.

For `CC(=O)c1cccc(NC(=O)c2cc(-c3cccnc3)nc3ccccc23)c1`, the RP-LC retention time turned out to be 739 s.

With `O=C(NCCCN1CCCC1)c1cc2n(n1)CCCN(Cc1ccc(Cl)cc1)C2=O`, the RP-LC retention time came out at 640 s.

`O=C(NCc1cccs1)C1CCN(CCc2c[nH]c3ncccc23)CC1` displayed an RP-LC retention time of 563 s.

The compound `CCNC(=O)C(=O)NCC(c1ccc2c(c1)CCCN2C)N1CCCC1` (centres undefined) displayed an RP-LC retention time of 615 s.

On to `O=C(CCCc1ccccc1)N1CCN(c2ccc(-n3cccn3)nn2)CC1`, for which the RP-LC retention time was determined as 758 s.

The compound `O=C(c1ccc([N+](=O)[O-])o1)N1CCN(C(=O)C2CC2c2cccs2)CC1` (centres undefined) returned an RP-LC retention time of 752 s.

Compound `Cc1ccc2c(c1)C(O)(CC(=O)c1cccc(-n3cccc3)c1)C(=O)N2` (centres undefined) had an RP-LC retention time of 711 s.

Turning to `CN(C)S(=O)(=O)c1cccc(-c2nnc(-c3ccc(Cl)cc3)o2)c1`, the RP-LC retention time came to 1000 s.

`CCOc1ccc(-c2noc(CN3C(=O)COc4cc(C(C)(C)C)ccc43)n2)cc1` yielded an RP-LC retention time of 1260 s.

On to `CCCOc1c(C(=O)OC)sc2ccc(NC(=O)c3cc(-c4cccs4)[nH]n3)cc12`, for which the RP-LC retention time came to 1110 s.
